Experimental data taken from US10450297B2, “Sulfonyl amide derivatives for the treatment of abnormal cell growth” (Pfizer, Inc., priority 2007, dated 2019).
pIC50: −log10 of the molar value.

Molecular target: FAK kinase (catalytic construct FAK(410-689)) (Homo sapiens (Human), UniProt Q05397)
Assay: FAKcd kinase ELISA (inhibition of poly-glu-tyr phosphorylation by FAK(410-689))
Assay type: biochemical
Settings: 50 μM final ATP

Chain of FAK kinase (catalytic construct FAK(410-689)) (Q05397 410-689): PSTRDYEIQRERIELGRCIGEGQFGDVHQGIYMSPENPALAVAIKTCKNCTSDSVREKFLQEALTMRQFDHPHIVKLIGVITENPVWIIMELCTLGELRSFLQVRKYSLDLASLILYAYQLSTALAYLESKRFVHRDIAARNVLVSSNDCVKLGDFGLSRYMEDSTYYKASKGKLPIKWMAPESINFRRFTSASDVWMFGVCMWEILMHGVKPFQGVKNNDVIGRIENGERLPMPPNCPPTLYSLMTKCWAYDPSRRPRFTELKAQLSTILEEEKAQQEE

pIC50	SMILES
8.35	CN(c1cccc(CNc2nc(Nc3ccc(C#N)c(O)c3)ncc2C(F)(F)F)c1)S(C)(=O)=O [Compound 392, N-{3-[({2-[(4-cyano-3-hydroxyphenyl)amino]-5-(trifluoromethyl)pyrimidin-4-yl}amino)methyl]phenyl}-N-methylmethanesulfonamide]
8.13	CS(=O)(=O)c1cccc(CNc2nc(Nc3ccc(C#N)c(O)c3)ncc2C(F)(F)F)c1 [Compound 393, 2-hydroxy-4-{[4-{[3-(methylsulfonyl)benzyl]amino}-5-(trifluoromethyl)pyrimidin-2-yl]amino}benzonitrile]
> 9.23	CN(c1ncccc1CNc1nc(Nc2ccc(C(N)=O)c(O)c2)ncc1C(F)(F)F)S(C)(=O)=O [Compound 394, 2-hydroxy-4-({4-[({2-[methyl(methylsulfonyl)amino)pyridin-3-yl}methyl)amino]-5-(trifluoromethyl)pyrimidin-2-yl}amino)benzamide]
9.07	CN(c1nccnc1CNc1nc(Nc2ccc(C(N)=O)c(O)c2)ncc1C(F)(F)F)S(C)(=O)=O [Compound 395, 2-hydroxy-4-({4-(({3-[methyl(methylsulfonyl)amino]pyrazin-2-yl}methyl)amino]-5-(trifluoromethyl)pyrimidin-2-yl}amino)benzamide]
8.50	CN(c1cccc(CNc2nc(Nc3ccc(C(N)=O)c(O)c3)ncc2C(F)(F)F)c1)S(C)(=O)=O [Compound 396, 2-hydroxy-4-{[4-({3-[methyl(methylsulfonyl)amino]benzyl}amino)-5-(trifluoromethyl)pyrimidin-2-yl]amino}bertzamide]
8.82	CC(=O)NCC(=O)Nc1cccc(Nc2ncc(C(F)(F)F)c(NCc3nccnc3N(C)S(C)(=O)=O)n2)c1 [Compound 397, N-2-acetyl-N-[3-({4-[({3-[methyl(methylsulfonyl)amino]pyrazin-2-yl}methyl)amino]-5-(trifluoromethyl)pyrimidin-2-yl}amino)phenyl]glycinamide]
8.66	CC(=O)NCC(=O)Nc1cccc(Nc2ncc(C(F)(F)F)c(NCc3ncccc3N(C)S(C)(=O)=O)n2)c1 [Compound 398, N~2~-acetyl-N-[3-({4-[({3-[methyl(methylsulfonyl)amino]pyridin-2-yl}methyl)amino]-5-(trifluoromethyl)pyrimidin-2-yl}amino)phenyl]glycinamide]
8.25	CC(=O)NCC(=O)Nc1cccc(Nc2ncc(C(F)(F)F)c(NCc3cccc(N(C)S(C)(=O)=O)c3)n2)c1 [Compound 399, N-2-acetyl-N-(3-{[4-({3-[methyl(methylsulfonyl)amino]benzyl}amino)-5-(trifluoromethyl)pyrimidin-2-yl]amino}phenyl)glycinamide]
9.18	CNC(=O)c1ccc(Nc2ncc(C(F)(F)F)c(NCc3nccnc3N(C)S(C)(=O)=O)n2)cc1C [Compound 400, N,2-dimethyl-4-({4-[({3-[methyl(methylsulfonyl)amino]pyrazin-2-yl)methyl)amino]-5-(trifluoromethyl)pyrimidin-2-yl}amino)benzamide]
8.93	CNC(=O)c1ccc(Nc2ncc(C(F)(F)F)c(NCc3nccnc3N(C)S(C)(=O)=O)n2)c(C)c1 [Compound 401, N,3-dimethyl-4-({4-[({3-[methyl(methylsulfonyl)amino]pyrazin-2-yl}methyl)amino]-5-(trifluoromethyl)pyrimidin-2-yl}amino)benzamide]
> 9.23	CNC(=O)c1ccc(Nc2ncc(C(F)(F)F)c(NCc3cccnc3N(C)S(C)(=O)=O)n2)cc1C [Compound 402, N,2-dimethyl-4-({4-[({2-[methyl(methylsulfonyl)amino]pyridin-3-yl}methyl)amino]-5-(trifluoromethyl)pyrimidin-2-yl}amino)benzamide]
8.96	CNC(=O)c1ccc(Nc2ncc(C(F)(F)F)c(NCc3cccnc3N(C)S(C)(=O)=O)n2)c(C)c1 [Compound 403, N,3-dimethyl-4-({4-[({2-[methyl(methylsulfonyl)amino]pyridin-3-yl}methyl)amino)-5-(trifluoromethyl)pyrimidin-2-yl}amino)benzamide]
8.68	CN(c1ccnc(CNc2nc(Nc3ccc(C(N)=O)cc3)ncc2C(F)(F)F)c1)S(C)(=O)=O [Compound 404, 4-({4-[({4-[methyl(methylsulfonyl)amino]pyridin-2-yl}methyl)amino]-5-(trifluoromethyl)pyrimidin-2-yl}amino)benzamide]
7.76	Cc1cc(C(N)=O)ccc1Nc1ncc(C(F)(F)F)c(NCc2cc(N(C)S(C)(=O)=O)ccn2)n1 [Compound 405, 3-methyl-4-({4-[({4-[methyl(methylsulfonyl)amino]pyridin-2-yl}methyl)amino]-5-(trifluoromethyl)pyrimidin-2-yl}amino)benzamide]
9.11	Cc1cc(Nc2ncc(C(F)(F)F)c(NCc3cc(N(C)S(C)(=O)=O)ccn3)n2)ccc1C(N)=O [Compound 406, 2-methyl-4-({4-[({4-[methyl(methylsulfonyl)amino]pyridin-2-yl}methyl)amino]-5-(trifluoromethyl)pyrimidin-2-yl}amino)benzamide]
> 9.23	CN(c1ncccc1CNc1nc(Nc2ccc(/C(N)=N/O)cc2)ncc1C(F)(F)F)S(C)(=O)=O [Compound 407, N′-hydroxy-4-({4-[({2-[methyl(methylsulfonyl)amino]pyridin-3-yl}methyl)amino]-5-(trifluoromethyl)pyrimidin-2-yl}amino)benzenecarboximidamide]
8.64	CN(c1ncccc1CNc1nc(Nc2cccc(C(N)=NO)c2)ncc1C(F)(F)F)S(C)(=O)=O [Compound 408, N′-hydroxy-3-({4-[({2-[methyl(methylsulfonyl)amino]pyridin-3-yl}methyl)amino]-5-(trifluoromethyl)pyrimidin-2-yl}amino)benzenecarboximidamide]
8.32	CN(c1nccnc1CNc1nc(Nc2ccc(C3COC(C)(C)O3)cc2)ncc1C(F)(F)F)S(C)(=O)=O (stereo not drawn) [Compound 409, N-[3-({[2-{[4-(2,2-dimethyl-1,3-dioxolan-4-yl)phenyl]amino}-5-(trifluoromethyl)pyrimidin-4-yl]amino}methyl)pyrazin-2-yl]-N-methylmethane-sulfonamide]
8.92	CN(c1ncccc1CNc1nc(Nc2ccc(C3COC(C)(C)O3)cc2)ncc1C(F)(F)F)S(C)(=O)=O (stereo not drawn) [Compound 410, N-[3-({[2-{[4-(2,2-dimethyl-1,3-dioxolan-4-yl)phenyl]amino}-5-(trifluoromethyl)pyrimidin-4-yl)amino}methyl)pyridin-2-yl]-N-methylmethane-sulfonamide]
9.03	CN(c1nccnc1CNc1nc(Nc2ccc(C(O)CO)cc2)ncc1C(F)(F)F)S(C)(=O)=O (stereo not drawn) [Compound 411, N-[3-({[2-{[4-(1,2-dihydroxyethyl)phenyl]amino}-5-(trifluoromethyl)pyrimidin-4-yl]amino}methyl)pyrazin-2-yl]-N-methylmethane-sulfonamide]
> 9.23	CN(c1ncccc1CNc1nc(Nc2ccc(C(O)CO)cc2)ncc1C(F)(F)F)S(C)(=O)=O (stereo not drawn) [Compound 412, N-[3-({[2-{[4-(1,2-dihydroxyethyl)phenyl]amino}-5-(trifluoromethyl)pyrimidin-4-yl]amino}methyl)pyridin-2-yl]-N-methylmethane-sulfonamide]
